Source: ChEMBL document CHEMBL5723583, “Data for DCP probe BAY-9835” (2024)

Experiments:
[1] = target: A disintegrin and metalloproteinase with thrombospondin motifs 7 (Homo sapiens, UniProt Q9UKP4); experiment: Biochemical enzymatic FRET assay (hADAMTS7) ( FRET substrate, HiLyteFluor-488 DELSSMVLELRGLRT-K(QXL520)-E-NH2 (custom synthesis by Anaspec) was used.)
[2] = target: A disintegrin and metalloproteinase with thrombospondin motifs 4 (Homo sapiens, UniProt O75173); experiment: Biochemical enzymatic FRET assay (hADAMTS4) ( FRET substrate, HiLyteFluor-488 DELSSMVLELRGLRT-K(QXL520)-E-NH2 (custom synthesis by Anaspec) was used.)
Chain of A disintegrin and metalloproteinase with thrombospondin motifs 4 (O75173 whole entry): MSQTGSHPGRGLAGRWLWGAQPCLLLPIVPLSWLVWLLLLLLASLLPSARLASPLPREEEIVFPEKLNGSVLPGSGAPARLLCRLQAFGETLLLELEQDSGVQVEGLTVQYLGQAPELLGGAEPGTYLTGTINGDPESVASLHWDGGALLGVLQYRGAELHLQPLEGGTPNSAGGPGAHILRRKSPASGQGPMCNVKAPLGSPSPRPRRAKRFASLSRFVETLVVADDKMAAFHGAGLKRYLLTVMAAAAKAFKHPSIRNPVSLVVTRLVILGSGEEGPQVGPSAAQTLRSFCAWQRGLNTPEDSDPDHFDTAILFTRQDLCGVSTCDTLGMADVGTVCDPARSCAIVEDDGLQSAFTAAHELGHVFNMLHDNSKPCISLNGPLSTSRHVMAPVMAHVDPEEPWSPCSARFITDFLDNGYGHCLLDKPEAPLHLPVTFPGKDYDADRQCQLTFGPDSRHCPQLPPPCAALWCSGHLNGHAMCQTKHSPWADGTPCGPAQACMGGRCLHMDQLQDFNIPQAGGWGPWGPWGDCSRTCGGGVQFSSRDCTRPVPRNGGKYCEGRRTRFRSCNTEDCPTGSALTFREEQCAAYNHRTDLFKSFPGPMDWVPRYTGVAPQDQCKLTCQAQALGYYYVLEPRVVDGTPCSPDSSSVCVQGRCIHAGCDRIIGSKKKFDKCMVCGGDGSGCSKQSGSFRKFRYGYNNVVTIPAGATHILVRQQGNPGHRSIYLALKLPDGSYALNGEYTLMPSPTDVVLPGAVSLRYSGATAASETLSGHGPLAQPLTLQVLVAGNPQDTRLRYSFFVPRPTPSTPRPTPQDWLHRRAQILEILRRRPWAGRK

Chain of A disintegrin and metalloproteinase with thrombospondin motifs 7 (Q9UKP4 whole entry): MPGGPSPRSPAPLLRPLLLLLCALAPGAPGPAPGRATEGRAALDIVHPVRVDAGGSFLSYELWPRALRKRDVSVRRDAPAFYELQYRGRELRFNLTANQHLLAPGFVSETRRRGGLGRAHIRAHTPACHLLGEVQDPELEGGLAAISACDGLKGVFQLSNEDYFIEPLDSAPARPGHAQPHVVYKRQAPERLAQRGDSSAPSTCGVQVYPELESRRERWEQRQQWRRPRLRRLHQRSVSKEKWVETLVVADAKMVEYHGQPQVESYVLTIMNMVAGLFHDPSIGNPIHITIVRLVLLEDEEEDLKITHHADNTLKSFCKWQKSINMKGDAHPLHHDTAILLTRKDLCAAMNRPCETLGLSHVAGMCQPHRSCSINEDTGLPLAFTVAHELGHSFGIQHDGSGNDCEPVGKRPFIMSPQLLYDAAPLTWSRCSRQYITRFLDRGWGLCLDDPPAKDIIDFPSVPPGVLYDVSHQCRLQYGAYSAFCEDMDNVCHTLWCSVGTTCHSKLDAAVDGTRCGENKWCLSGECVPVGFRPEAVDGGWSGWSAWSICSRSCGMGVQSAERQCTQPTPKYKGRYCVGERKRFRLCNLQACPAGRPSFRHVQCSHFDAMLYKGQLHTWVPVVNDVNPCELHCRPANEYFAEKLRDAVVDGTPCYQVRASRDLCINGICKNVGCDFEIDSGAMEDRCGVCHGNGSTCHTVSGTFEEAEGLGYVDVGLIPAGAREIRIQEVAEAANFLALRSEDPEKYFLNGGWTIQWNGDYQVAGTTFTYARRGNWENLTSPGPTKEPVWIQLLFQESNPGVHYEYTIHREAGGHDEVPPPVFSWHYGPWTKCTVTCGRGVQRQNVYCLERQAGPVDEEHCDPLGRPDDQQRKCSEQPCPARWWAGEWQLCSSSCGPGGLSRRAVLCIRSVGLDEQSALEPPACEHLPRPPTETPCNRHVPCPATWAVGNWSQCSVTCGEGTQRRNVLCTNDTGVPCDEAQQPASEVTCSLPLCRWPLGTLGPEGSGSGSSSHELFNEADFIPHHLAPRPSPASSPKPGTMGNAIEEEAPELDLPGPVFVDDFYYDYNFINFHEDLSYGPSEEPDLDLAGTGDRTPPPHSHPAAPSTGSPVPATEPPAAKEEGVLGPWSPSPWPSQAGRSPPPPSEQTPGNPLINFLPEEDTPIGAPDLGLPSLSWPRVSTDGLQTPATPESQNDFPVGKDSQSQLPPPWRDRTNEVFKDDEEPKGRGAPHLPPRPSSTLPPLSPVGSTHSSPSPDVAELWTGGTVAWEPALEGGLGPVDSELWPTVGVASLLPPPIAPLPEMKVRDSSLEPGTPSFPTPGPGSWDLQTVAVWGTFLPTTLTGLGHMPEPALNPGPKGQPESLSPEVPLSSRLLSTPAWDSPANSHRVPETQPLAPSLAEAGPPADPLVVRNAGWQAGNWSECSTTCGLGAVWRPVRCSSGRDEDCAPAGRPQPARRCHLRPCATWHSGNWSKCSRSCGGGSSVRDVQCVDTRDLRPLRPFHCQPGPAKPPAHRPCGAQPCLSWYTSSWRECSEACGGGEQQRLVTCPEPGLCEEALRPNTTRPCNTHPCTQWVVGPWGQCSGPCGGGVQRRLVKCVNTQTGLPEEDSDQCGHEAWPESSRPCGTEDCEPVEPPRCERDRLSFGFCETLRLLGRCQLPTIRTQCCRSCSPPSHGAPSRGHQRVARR

- IC50 [1]: 23.4 µM (not active)
- IC50 [2]: > 50 µM (not active)
Structure (SMILES): Cn1nccc1[C@@]1(CNC(=O)c2ccc(F)cc2-c2ccc(C(F)(F)F)cc2)NC(=O)NC1=O
